In paper PMC10362580, “Patient-derived organoids for precision oncology: a platform to facilitate clinical decision making” (BMC Cancer, 2023):

Legend:
[1] = system: patient-derived primary ovarian cancer organoids (Tumor Organoid); assay: PDO drug sensitivity and resistance testing (CellTiter-Glo), ovarian tumor organoids; assay type: cell-based, human; settings: for IC50: Homo sapiens
Procedure: (§1) Patient-derived tumor organoid was dissociated to single cells after seven days in culture. Epithelial Cells (from tumor and adjacent normal tissues) in combination with patient-derived isogenic adipose-derived Mesenchymal Stem Cells: iECs: MSCs (3:1:1) were seeded at a density of 5000 cells per well in 96-well clear bottom microplates. Multicellular organoids were allowed to grow for seven days. Breast and ovarian organoids were imaged every day and fed every alternate day with aforementioned Breast organoid medium and Ovarian organoid medium respectively. […] Organoids were subsequently incubated for […]; DMSO only- vehicle control and media only- negative control was used to set the baseline. After 0, 1, 7, 14 and 21 days ATP levels were measured with the CellTiter-Glo (Promega, Wisconsin, USA). All screenings were performed in triplicates. Data were analyzed using GraphPad Prism 6. Drug dose–response curves were visualized using […] analysis [setting: log (inhibitor) versus response, least-squares (ordinary) fit; top constraint 100%]. Concentrations where 50% cell viability (IC50-value) was reached were interpolated. The area under the curve (AUC) was approximated between the lowest and highest concentrations screened in the actual assay with the trapezoid rule for numerical integration. The dose–response curves were plotted as the percentage of the cell viability against the logarithm of drug concentrations in µM and were fitted to estimate the IC50.
(§2) We developed a protocol to culture and expand organoids from tissues collected from ovarian cancer patients. […] We performed drug sensitivity and resistance test (DSRT) using 2 FDA-approved commonly used therapeutic drugs paclitaxel and doxorubicin. Depending on the properties of the individual drugs, the concentrations ranged from 0.001 µM to 1000 µM (Fig. 6).
(§3) Following seven days incubation, organoid cultures were manually inspected using a phase-contrast microscope to check cell health and morphology prior to the addition of drugs. CellTiter-Glo® 2.0 determines the number of viable cells in a well, based on the quantification of ATP present, an indicator of metabolically viable cells. Total cell count was measured by CellTiter-Glo® 2.0, which causes cell lysis and produces a luminescence signal proportional to the amount of ATP present. Following completion of the above quality metrics, the data was normalized or the raw intensity data was used for curve-fitting. • Data normalization: Normalization was completed using the following calculation: (Raw intensity signal- Mean of positive control/ Mean of negative control-Mean positive control)

[2] = system: Normal Organoid from normal adjacent tissue of ovarian cancer patients; assay: PDO drug sensitivity and resistance testing (CellTiter-Glo), ovarian normal adjacent tissue organoids; assay type: cell-based; settings: Homo sapiens
Procedure: as §1, §2, §3

[3] = system: patient-derived breast cancer organoids (Tumor Organoid); assay: PDO drug sensitivity and resistance testing (CellTiter-Glo), breast tumor organoids; assay type: cell-based, human; settings: for IC50: Homo sapiens
Procedure: as §1
(§4) We investigated BC organoids in response to standard medications in order to assess their potential as in vitro disease models. Towards this, PDOs were treated with doxorubicin and paclitaxel (commonly used chemotherapeutic drugs).
as §3

[4] = system: Normal Organoid from normal adjacent tissue of breast cancer patients; assay: PDO drug sensitivity and resistance testing (CellTiter-Glo), breast normal adjacent tissue organoids; assay type: cell-based; settings: Homo sapiens
Procedure: as §1, §4, §3

[5] = system: iPSCs-derived cardiomyocytes; assay: Calcium transient assay (cardiotoxicity); assay type: cell-based, human; settings: 1 µM; cardiomyocytes from healthy donor, breast cancer and ovarian cancer patient
Procedure: To initiate cardiac differentiation, 10,000 cells/cm^2 of passage 11–20 single cell suspension of iPSCs were seeded on matrigel coated plates in mTeSR™1 media and incubated overnight to obtain 95% confluent culture. Once cells reached > 95% confluence, RPMI 1648 medium (Gibco)/B-27 Supplement Minus Insulin (Gibco)/ 100 ng/ml Activin A (Gibco) + Matrigel (Corning) + […] CHIR9902 (Stem Cell Technologies) was added. CHIR9902 only for 24 h. Day 02–04: RPMI 1648 medium (Gibco)/B-27 Supplement Minus Insulin (Gibco)/ activin A (Gibco) (100 ng/ml) and BMP4 (Gibco) (10 ng/ml) and bFGF. Day 05–06: RPMI 1640 (with L-glutamine) with 2% B27 minus insulin supplement, 1 µl IWR-1 (5 µM final). Day 07–09: RPMI 1640 with L-Glutamine (Gibco) with 2% B27 with insulin supplement (Gibco). Day10: At day 10 post-differentiation, changed the medium to RPMI 1648-low glucose medium (Gibco) and maintained the cells in this medium for 3 days (until day 13). Day 13: Returned cells to RPMI/B27 medium-with insulin (Gibco). At day 14, changed the medium back to RPMI-low glucose medium (Gibco) for a second glucose deprivation cycle. Cultured the cells in this low glucose state for 3 more days. Most of the non-cardiomyocytes will die in this low-glucose culture condition. At day 17, changed the medium to 2 ml of RPMI/B27 medium with insulin. The remaining cells will be highly purified cardiomyocytes. […]

COc1cccc2c1C(=O)c1c(O)c3c(c(O)c1C2=O)C[C@@](O)(C(=O)CO)C[C@@H]3O[C@H]1C[C@H](N)[C@H](O)[C@H](C)O1 [Doxorubicin]
IC50 ([1]; 168 h, Ovarian Cancer Sample 1, Tumor Organoid, day 7, CTG): 847 µM
IC50 ([1]; 168 h, Ovarian Cancer Sample 2, Tumor Organoid, day 7, CTG): 2450 µM
IC50 ([1]; 168 h, Ovarian Cancer Sample 3, Tumor Organoid, day 7, CTG): 987 µM
IC50 ([1]; 336 h, Ovarian Cancer Sample 1, Tumor Organoid, day 14, CTG): 877 µM
IC50 ([1]; 336 h, Ovarian Cancer Sample 2, Tumor Organoid, day 14, CTG): 2210 µM
IC50 ([1]; 336 h, Ovarian Cancer Sample 3, Tumor Organoid, day 14, CTG): 1040 µM
IC50 ([1]; 504 h, Ovarian Cancer Sample 1, Tumor Organoid, day 21, CTG): 1.02 µM
IC50 ([1]; 504 h, Ovarian Cancer Sample 2, Tumor Organoid, day 21, CTG): 1930 µM
IC50 ([1]; 504 h, Ovarian Cancer Sample 3, Tumor Organoid, day 21, CTG): 98.1 µM
Viability of organoids (CTG assay) ([1]; ovarian cancer organoids): significantly decreased the viability of organoids
IC50 ([2]; 168 h, Ovarian Cancer Sample 1, Normal Organoid, day 7, CTG): 96.2 µM
IC50 ([2]; 168 h, Ovarian Cancer Sample 2, Normal Organoid, day 7, CTG): 2340 µM
IC50 ([2]; 168 h, Ovarian Cancer Sample 3, Normal Organoid, day 7, CTG): 102 µM
IC50 ([2]; 336 h, Ovarian Cancer Sample 1, Normal Organoid, day 14, CTG): 8.92 µM
IC50 ([2]; 336 h, Ovarian Cancer Sample 2, Normal Organoid, day 14, CTG): 2250 µM
IC50 ([2]; 336 h, Ovarian Cancer Sample 3, Normal Organoid, day 14, CTG): 8.89 µM
IC50 ([2]; 504 h, Ovarian Cancer Sample 1, Normal Organoid, day 21, CTG): 0.0119 µM
IC50 ([2]; 504 h, Ovarian Cancer Sample 2, Normal Organoid, day 21, CTG): 1160 µM
IC50 ([2]; 504 h, Ovarian Cancer Sample 3, Normal Organoid, day 21, CTG): 9.29 µM
IC50 ([3]; 168 h, Breast Cancer Sample 1, Tumor Organoid, day 7, CTG): 902 µM
IC50 ([3]; 168 h, Breast Cancer Sample 2, Tumor Organoid, day 7, CTG): 976 µM
IC50 ([3]; 168 h, Breast Cancer Sample 3, Tumor Organoid, day 7, CTG): 938 µM
IC50 ([3]; 336 h, Breast Cancer Sample 1, Tumor Organoid, day 14, CTG): 117 µM
IC50 ([3]; 336 h, Breast Cancer Sample 2, Tumor Organoid, day 14, CTG): 1060 µM
IC50 ([3]; 336 h, Breast Cancer Sample 3, Tumor Organoid, day 14, CTG): 92.2 µM
IC50 ([3]; 504 h, Breast Cancer Sample 1, Tumor Organoid, day 21, CTG): 125 µM
IC50 ([3]; 504 h, Breast Cancer Sample 2, Tumor Organoid, day 21, CTG): 97.6 µM
IC50 ([3]; 504 h, Breast Cancer Sample 3, Tumor Organoid, day 21, CTG): 9.55 µM
Viability of organoids (CTG assay) ([3]; breast cancer organoids): significantly decreased the viability of organoids
Response of breast cancer PDOs to treatment ([3]; few breast cancer PDOs): resistant
IC50 ([4]; 168 h, Breast Cancer Sample 1, Normal Organoid, day 7, CTG): 96.6 µM
IC50 ([4]; 168 h, Breast Cancer Sample 2, Normal Organoid, day 7, CTG): 859 µM
IC50 ([4]; 168 h, Breast Cancer Sample 3, Normal Organoid, day 7, CTG): 955 µM
IC50 ([4]; 336 h, Breast Cancer Sample 1, Normal Organoid, day 14, CTG): 92 µM
IC50 ([4]; 336 h, Breast Cancer Sample 2, Normal Organoid, day 14, CTG): 1010 µM
IC50 ([4]; 336 h, Breast Cancer Sample 3, Normal Organoid, day 14, CTG): 96.4 µM
IC50 ([4]; 504 h, Breast Cancer Sample 1, Normal Organoid, day 21, CTG): 0.955 µM
IC50 ([4]; 504 h, Breast Cancer Sample 2, Normal Organoid, day 21, CTG): 9.53 µM
IC50 ([4]; 504 h, Breast Cancer Sample 3, Normal Organoid, day 21, CTG): 10.2 µM
Calcium oscillation/contraction pattern sensitivity, donor comparison [5]: Ovarian cancer patient’s cardiomyocytes was found more sensitive to Doxorubicin followed by breast cancer patient and healthy donor
